The source made the active and inactive calls. The calls are words filed in the database; no cut-off is given here.
Biological target: T1, Trifunctional purine biosynthetic protein adenosine-3 (Homo sapiens) (UniProt P22102)
T1 sequence (whole entry): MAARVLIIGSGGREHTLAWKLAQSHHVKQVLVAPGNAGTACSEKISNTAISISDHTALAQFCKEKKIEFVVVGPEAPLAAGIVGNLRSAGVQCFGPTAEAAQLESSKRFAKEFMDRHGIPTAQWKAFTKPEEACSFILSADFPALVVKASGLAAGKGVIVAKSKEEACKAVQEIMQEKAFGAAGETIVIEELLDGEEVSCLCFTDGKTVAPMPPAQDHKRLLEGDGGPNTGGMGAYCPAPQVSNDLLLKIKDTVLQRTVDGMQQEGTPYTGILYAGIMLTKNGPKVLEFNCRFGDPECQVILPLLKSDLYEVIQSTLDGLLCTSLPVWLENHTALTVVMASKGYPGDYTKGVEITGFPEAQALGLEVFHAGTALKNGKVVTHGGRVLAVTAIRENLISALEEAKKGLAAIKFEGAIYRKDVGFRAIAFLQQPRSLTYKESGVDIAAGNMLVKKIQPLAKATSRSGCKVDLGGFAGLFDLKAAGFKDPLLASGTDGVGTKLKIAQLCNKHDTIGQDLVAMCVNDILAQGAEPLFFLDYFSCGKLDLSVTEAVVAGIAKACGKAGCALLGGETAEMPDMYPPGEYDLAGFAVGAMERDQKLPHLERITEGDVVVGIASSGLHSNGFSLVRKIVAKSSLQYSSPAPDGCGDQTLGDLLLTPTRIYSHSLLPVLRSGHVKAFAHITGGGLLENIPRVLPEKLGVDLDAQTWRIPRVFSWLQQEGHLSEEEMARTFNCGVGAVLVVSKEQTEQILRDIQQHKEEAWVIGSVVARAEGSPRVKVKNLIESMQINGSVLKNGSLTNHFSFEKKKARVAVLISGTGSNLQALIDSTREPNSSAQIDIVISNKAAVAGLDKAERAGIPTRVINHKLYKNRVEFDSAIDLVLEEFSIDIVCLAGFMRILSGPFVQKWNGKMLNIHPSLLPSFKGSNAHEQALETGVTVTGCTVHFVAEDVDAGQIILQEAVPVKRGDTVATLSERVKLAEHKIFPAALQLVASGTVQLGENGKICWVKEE
Assay: Inhibition of GARFTase in human KB cells expressing FRalpha/PCFT/RFC assessed as cell growth inhibition after 96 hrs by CellTiter-Blue assay in presence of adenosine
Assay type: cell-based

SMILES: Nc1nc2[nH]c(CCCc3cc(C(=O)N[C@@H](CCC(=O)O)C(=O)O)cs3)cc2c(=O)[nH]1
- inhibition: inactive
